Laboratory results: patent US10813944B2, “Cyclodextrins as procoagulants” (STICHTING SANQUIN BLOEDVOORZIENING, priority 2016, dated 2020)

Tests used:
[1] = tested on: human plasma deficient in coagulation factor XI; assay: Thrombin generation assay in human plasma deficient in coagulation factor XI; type: biochemical
Description: (§1) The Calibrated Automated Thrombogram® assays the generation of thrombin in clotting plasma using a microtiter plate reading fluorometer (Fluoroskan Ascent, ThermoLab systems, Helsinki, Finland) and Thrombinoscope® software (Thrombinoscope BV, Maastricht, The Netherlands). The assay was carried out as described by Hemker et al. (Pathofysiol. IIaemost. Thromb. 2003, 33, 4-15), and the Thrombinoscope® manual. Coagulation was triggered by recalcification in the presence of 1 or 5 pM recombinant human tissue factor (Innovin®, Siemens, Marburg, Germany), 4 μM phospholipids, and 417 μM fluorogenic substrate Z-Gly-Gly-Arg-AMC (Bachem, Bubendorf, Switzerland). Fluorescence was monitored using the Fluoroskan Ascent fluorometer (ThermoLabsystems, Helsinki, Finland), and the lag time, peak thrombin, velocity index and area under the curve (ETP) were calculated using the Thrombinoscope® software (Thrombinoscope BV).

[2] = tested on: normal human plasma pretreated with inhibitory antibodies against factor IX; assay: Thrombin generation in normal plasma spiked with inhibitory antibodies against factor IX; type: biochemical; details: antibody 5F5 20 μg/ml; 1 pM TF
Description: as §1
Normal plasma was spiked with inhibitory antibodies against factor VIII (Sanquin, VK34, 14 μg/ml), factor IX (Sanquin, 5F5, 20 μg/ml) or factor XI (Sanquin, mix of #203 and #175, 75 μg/ml). The effect of OKL-1111 was tested in thrombin generation assay using 1 pM tissue factor (TF). This model is representative for hemophilia A, B and C patients that have developed inhibitory antibodies against plasma-derived or recombinant factor VIII or IX or XI they are treated with.

[3] = tested on: plasma of a hemophilia A patient containing anti-FVIII antibodies; assay: Thrombin generation in plasma of a hemophilia A patient with anti-factor VIII antibodies; type: biochemical, human; details: anti-FVIII antibodies 50 BU
Description: FIG. 28: Effect of OKL-1111 (A), OKL-1180 (B) and OKL-1187 (C) on coagulation in plasma of a hemophilia A patient with anti-factor VIII antibodies. BU=Bethesda Units.
as §1
The patient had developed antibodies against factor VIII prior to plasma withdrawal. The plasma contained high levels of anti-FVIII antibodies (50 BU).

[4] = tested on: thrombin generation in pooled normal plasma; assay: Calibrated Automated Thrombogram thrombin generation assay in pooled normal plasma; type: biochemical, human
[5] = normal plasma, versus absence of cyclodextrin

Q: How did the “stimulation of coagulation in factor XI deficient plasma” value [1] turn out when O=C(O)CCCCCSCC1OC2OC3C(CSCCCCCC(=O)O)OC(OC4C(CSCCCCCC(=O)O)OC(OC5C(CSCCCCCC(=O)O)OC(OC6C(CSCCCCCC(=O)O)OC(OC7C(CSCCCCCC(=O)O)OC(OC8C(CSCCCCCC(=O)O)OC(OC9C(CSCCCCCC(=O)O)OC(OC1C(O)C2O)C(O)C9O)C(O)C8O)C(O)C7O)C(O)C6O)C(O)C5O)C(O)C4O)C(O)C3O (stereo not drawn) [OKL-1111] was run?
A: stimulate coagulation significantly

Q: And the “thrombin generation in plasma with inhibitory antibodies against factor IX” value [2]?
A: concentration-dependently stimulated thrombin generation

Q: And the “thrombin generation in hemophilia A patient plasma” value [3]?
A: concentration-dependently stimulated thrombin generation

Q: And the “procoagulant effect in normal plasma” value ([4]; no anticoagulant, cyclodextrin 100 μM unless otherwise indicated, 1 pM TF)?
A: very strong procoagulant effects

Q: And the lag time [4, 5]?
A: considerably shorter

Q: What about the peak thrombin [4, 5] of the same compound?
A: largely increased
